Reference: US20250236603A1, “SOLID FORMS OF ALECTINIB AND ALECTINIB SALTS” (Synthon B.V., priority 2022, published 2025)
Read-outs that look alike come from different tables or passages of the source.

What was measured:
[1] = Solubilities of prepared salts (buffer pH 1.2 with 4% Triton X-100, HPLC); settings: 100 rpm
Procedure: (§1) 20 mg of the Alectinib salt was mixed 10 ml of a mixture of buffer pH 1.2 and 4% Triton X-100. The mixture was placed into a stirring carousel at temperature +37° C. and 100 rpm. After 1 hour and 4 hours about 1 mL of each sample was taken and filtered through a 0.45 μm filter into a vial. Then each sample was diluted with Solvent solution to get signal of absorbance ≤1 at 265 nm, transferred into a vial and measured by HPLC method.
(§2) 20 mg of the Alectinib salt was mixed 10 ml of a mixture of buffer pH 1.2 and 4% Triton X-100. The mixture was placed into a stirring carousel at temperature+37° C. and 100 rpm. After 1 hour and 4 hours about 1 mL of each sample was taken and filtered through a 0.45 μm filter into a vial. Then each sample was diluted with Solvent solution to get signal of absorbance≤1 at 265 nm, transferred into a vial and measured by HPLC method.

[2] = pH 1.2
Procedure: as §1, §2

[3] = Example 10, 20 mg salt in 10 ml buffer pH 1.2 and 4% Triton X-100, +37° C.
[4] = Example 18, 20 mg salt in 10 ml buffer pH 1.2 and 4% Triton X-100, +37° C.
[5] = Example 28, 20 mg salt in 10 ml buffer pH 1.2 and 4% Triton X-100, +37° C.
[6] = Example 18, 20 mg salt in 10 ml buffer pH 1.2 and 4% Triton X-100, +37° C., maleate salt
[7] = Example 10, 20 mg salt in 10 ml buffer pH 1.2 and 4% Triton X-100, +37° C., acetate salt

CCc1cc2c(cc1N1CCC(N3CCOCC3)CC1)C(C)(C)c1[nH]c3cc(C#N)ccc3c1C2=O.Cl [HCl, reference compound]
Solubility after 1 hour [1, 3]: 370 µg/mL | Solubility after 1 hour [1, 4]: 370 µg/mL | Solubility after 1 hour [1, 5]: 370 µg/mL

CCc1cc2c(cc1N1CCC(N3CCOCC3)CC1)C(C)(C)c1[nH]c3cc(C#N)ccc3c1C2=O.CS(=O)(=O)O [Methane sulfonate salt, Form 15, Alectinib methane sulfonate salt]
Solubility after 1 hour [2]: 1190 µg/mL

CCc1cc2c(cc1N1CCC(N3CCOCC3)CC1)C(C)(C)c1[nH]c3cc(C#N)ccc3c1C2=O.O=C(O)C=CC(=O)O [Hydrogen maleate salt, Form 2, Alectinib hydrogen maleate salt]
Solubility after 1 hour [1, 6]: 1260 µg/mL

Alectinib tartrate salt [Tartrate, Form 8]
Solubility after 1 hour [1, 4]: 1230 µg/mL

CCc1cc2c(cc1N1CCC(N3CCOCC3)CC1)C(C)(C)c1[nH]c3cc(C#N)ccc3c1C2=O.O=C(O)C=CC(=O)O [Fumaric acid (1:1) salt, Form 6, Alectinib fumaric acid (1:1) salt]
Solubility after 1 hour [1, 4]: 1220 µg/mL

Alectinib acetate salt [Acetate, Form 4]
Solubility after 1 hour [1, 7]: 1220 µg/mL

CCc1cc2c(cc1N1CCC(N3CCOCC3)CC1)C(C)(C)c1[nH]c3cc(C#N)ccc3c1C2=O.CS(=O)(=O)O [Methane sulfonate salt, Form 3, Alectinib methane sulfonate salt]
Solubility after 1 hour [2]: 1210 µg/mL

CCc1cc2c(cc1N1CCC(N3CCOCC3)CC1)C(C)(C)c1[nH]c3cc(C#N)ccc3c1C2=O.CS(=O)(=O)O [Methane sulfonate salt, Form 13, Alectinib methane sulfonate salt]
Solubility after 1 hour [2]: 1300 µg/mL

CCc1cc2c(cc1N1CCC(N3CCOCC3)CC1)C(C)(C)c1[nH]c3cc(C#N)ccc3c1C2=O.CS(=O)(=O)O [Methane sulfonate salt, Form 14, Alectinib methane sulfonate salt]
Solubility after 1 hour [2]: 1320 µg/mL

Tosylate [reference compound]
Solubility after 1 hour [1, 3]: 500 µg/mL | Solubility after 1 hour [1, 4]: 500 µg/mL | Solubility after 1 hour [1, 5]: 500 µg/mL

CCc1cc2c(cc1N1CCC(N3CCOCC3)CC1)C(C)(C)c1[nH]c3cc(C#N)ccc3c1C2=O.O=C(O)C=CC(=O)O [Hydrogen maleate salt, Form 1, Alectinib hydrogen maleate salt]
Solubility after 1 hour [1, 6]: 2380 µg/mL

CCc1cc2c(cc1N1CCC(N3CCOCC3)CC1)C(C)(C)c1[nH]c3cc(C#N)ccc3c1C2=O.CS(=O)(=O)O [Methane sulfonate salt, Form 12, Alectinib methane sulfonate salt]
Solubility after 1 hour [2]: 1350 µg/mL

CCc1cc2c(cc1N1CCC(N3CCOCC3)CC1)C(C)(C)c1[nH]c3cc(C#N)ccc3c1C2=O.O=C(O)C=CC(=O)O [Fumaric acid (1:1) salt, Form 2, Alectinib fumaric acid (1:1) salt]
Solubility after 1 hour [1, 4]: 1300 µg/mL

CCc1cc2c(cc1N1CCC(N3CCOCC3)CC1)C(C)(C)c1[nH]c3cc(C#N)ccc3c1C2=O.CCc1cc2c(cc1N1CCC(N3CCOCC3)CC1)C(C)(C)c1[nH]c3cc(C#N)ccc3c1C2=O.O=C(O)C=CC(=O)O [Fumaric acid (2:1) salt, Form 2, Alectinib fumaric acid (2:1) salt]
Solubility after 1 hour [1, 4]: 1230 µg/mL

Alectinib acetate salt [Acetate, Form 2]
Solubility after 1 hour [1, 7]: 870 µg/mL
